Data taken from PubChem BioAssay (NCI).
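Each compound was tested at five concentrations against cells in 96-well plates for 48 hours. At the TGI there is no net growth.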

How the values were obtained:
Test in all cases: DTP human tumour cell line panel, 48 h
SK-MEL-2 melanoma = test system: SK-MEL-2 melanoma
KM12 colon = test system: KM12 colon
SR leukemia = test system: SR leukemia
ACHN renal = test system: ACHN renal
RPMI-8226 leukemia = test system: RPMI-8226 leukemia
TK-10 renal = test system: TK-10 renal
T-47D breast = test system: T-47D breast
UO-31 renal = test system: UO-31 renal
BT-549 breast = test system: BT-549 breast
SK-OV-3 ovarian = test system: SK-OV-3 ovarian
A549 NSCLC = test system: A549 NSCLC
A498 renal = test system: A498 renal
RXF 393 renal = test system: RXF 393 renal
OVCAR-3 ovarian = test system: OVCAR-3 ovarian
UACC-257 melanoma = test system: UACC-257 melanoma
HCC-2998 colon = test system: HCC-2998 colon
DU-145 prostate = test system: DU-145 prostate
786-0 renal = test system: 786-0 renal
COLO 205 colon = test system: COLO 205 colon
SW-620 colon = test system: SW-620 colon
HOP-62 NSCLC = test system: HOP-62 NSCLC
U251 CNS = test system: U251 CNS
NCI-H23 lung = test system: NCI-H23 lung
SK-MEL-28 melanoma = test system: SK-MEL-28 melanoma
SN12C renal = test system: SN12C renal
M14 melanoma = test system: M14 melanoma
NCI-H522 lung = test system: NCI-H522 lung
OVCAR-4 ovarian = test system: OVCAR-4 ovarian
SF-539 CNS = test system: SF-539 CNS
MCF7 breast = test system: MCF7 breast
SK-MEL-5 melanoma = test system: SK-MEL-5 melanoma
OVCAR-8 ovarian = test system: OVCAR-8 ovarian
SF-268 CNS = test system: SF-268 CNS
SF-295 CNS = test system: SF-295 CNS
MOLT-4 leukemia = test system: MOLT-4 leukemia
MDA-MB-435 = test system: MDA-MB-435
HS 578T breast = test system: HS 578T breast
OVCAR-5 ovarian = test system: OVCAR-5 ovarian
NCI-H226 lung = test system: NCI-H226 lung
IGROV1 ovarian = test system: IGROV1 ovarian
PC-3 prostate = test system: PC-3 prostate
HOP-92 NSCLC = test system: HOP-92 NSCLC
CCRF-CEM leukemia = test system: CCRF-CEM leukemia
EKVX NSCLC = test system: EKVX NSCLC
SNB-19 CNS = test system: SNB-19 CNS
SNB-75 CNS = test system: SNB-75 CNS
UACC-62 melanoma = test system: UACC-62 melanoma
NCI/ADR-RES ovarian = test system: NCI/ADR-RES ovarian
HCT-116 colon = test system: HCT-116 colon
CAKI-1 renal = test system: CAKI-1 renal
MDA-MB-231 breast = test system: MDA-MB-231 breast
LOX IMVI melanoma = test system: LOX IMVI melanoma
K-562 leukemia = test system: K-562 leukemia
HCT-15 colon = test system: HCT-15 colon
HT29 colon = test system: HT29 colon

In the case of `CN(C)CCNc1ccc(NCCN(C)C)c2c1C(=O)c1ncsc1C2=O`, the TGI (SK-MEL-2 melanoma) is reported as 42.7 µM, the TGI (KM12 colon) is reported as 25.2 µM and the TGI (SR leukemia) is reported as 4.39 µM. It also gave a TGI (ACHN renal) of 22.7 µM, a TGI (RPMI-8226 leukemia) of 29.4 µM and a TGI (TK-10 renal) of 58.2 µM. It also gave a TGI (T-47D breast) of over 100 µM, a TGI (UO-31 renal) of 32.2 µM and a TGI (BT-549 breast) of 35.1 µM. For the same compound, the TGI (SK-OV-3 ovarian) was 38.8 µM, the TGI (A549 NSCLC) was 31.3 µM and the TGI (A498 renal) was 28.1 µM. The TGI (RXF 393 renal) was 41 µM, the TGI (OVCAR-3 ovarian) was 37.2 µM and the TGI (UACC-257 melanoma) was 34.7 µM. For the same compound, the TGI (HCC-2998 colon) was 31.3 µM, the TGI (DU-145 prostate) was 25.9 µM and the TGI (786-0 renal) was 24 µM. It also gave a TGI (COLO 205 colon) of 31.1 µM, a TGI (SW-620 colon) of 29.7 µM and a TGI (HOP-62 NSCLC) of 43.6 µM. It also gave a TGI (U251 CNS) of 29.7 µM, a TGI (NCI-H23 lung) of 30 µM and a TGI (SK-MEL-28 melanoma) of 33.7 µM. The TGI (SN12C renal) was 25.7 µM, the TGI (M14 melanoma) was 36.6 µM and the TGI (NCI-H522 lung) was 31.7 µM. It also gave a TGI (OVCAR-4 ovarian) of 25.1 µM, a TGI (SF-539 CNS) of 28.1 µM and a TGI (MCF7 breast) of 21.3 µM. It also gave a TGI (SK-MEL-5 melanoma) of 31.6 µM, a TGI (OVCAR-8 ovarian) of 27.8 µM and a TGI (SF-268 CNS) of 39.3 µM. The TGI (SF-295 CNS) was 26.6 µM, the TGI (MOLT-4 leukemia) was 5.57 µM and the TGI (MDA-MB-435) was 27.8 µM. For the same compound, the TGI (HS 578T breast) was 50.3 µM, the TGI (OVCAR-5 ovarian) was 55.3 µM and the TGI (NCI-H226 lung) was 17.7 µM. It also gave a TGI (IGROV1 ovarian) of 28.1 µM, a TGI (PC-3 prostate) of 38.1 µM and a TGI (HOP-92 NSCLC) of 29.9 µM. For the same compound, the TGI (CCRF-CEM leukemia) was 10.9 µM, the TGI (EKVX NSCLC) was 26.4 µM and the TGI (SNB-19 CNS) was 51 µM. For the same compound, the TGI (SNB-75 CNS) was 33 µM, the TGI (UACC-62 melanoma) was 24.6 µM and the TGI (NCI/ADR-RES ovarian) was over 100 µM. For the same compound, the TGI (HCT-116 colon) was 22.7 µM, the TGI (CAKI-1 renal) was 57.5 µM and the TGI (MDA-MB-231 breast) was 32.2 µM. For the same compound, the TGI (LOX IMVI melanoma) was 29.5 µM, the TGI (K-562 leukemia) was 34.3 µM and the TGI (HCT-15 colon) was 27.6 µM. The TGI (HT29 colon) was 19.7 µM.
